Data on 7 molecules can be found in patent US9340590B2 (priority 2011, dated 2016).

Where two headings read alike, the source gives them in different places. Positions of bridges follow the written chain, without caps; N, C: chain ends. Residues, ends and D or L forms follow the SMILES beside them.

Common to all, as to test: cell-based
One assay addresses hNav1.3 (Homo sapiens, UniProt Q9NY46). The conditions noted are these: IonWorks Quattro; clamped to −110 mV, depolarized to −10 mV, 5 min after compound; n=2; read-out: IWQ Use Nav1.3. Background: Patch clamp records ionic current or voltage across a cell membrane.
The target of assay [1] is T1, hNav1.7 (Homo sapiens, UniProt Q15858). The conditions noted are these: Nav1.7 Use IC50.
Assay [2] concerns the target T2, hNav1.5 (Homo sapiens, UniProt Q14524).
In assay [3] the target is T2, hNav1.5. This is another data set of the same source.
For assay [4], the target named is T1, hNav1.7. In kind it is cell-based.
[5] abbreviates: IonWorks Quattro, clamped to −110 mV, depolarized to −10 mV, 5 min after compound, n=2, read-out: IWQ Use Nav1.5.
[6] abbreviates: IonWorks Quattro, clamped to −110 mV, depolarized to −10 mV, 5 min after compound, n=2, read-out: IWQ Use Nav1.7.

Chain of hNav1.3 (Q9NY46 whole entry, looked up): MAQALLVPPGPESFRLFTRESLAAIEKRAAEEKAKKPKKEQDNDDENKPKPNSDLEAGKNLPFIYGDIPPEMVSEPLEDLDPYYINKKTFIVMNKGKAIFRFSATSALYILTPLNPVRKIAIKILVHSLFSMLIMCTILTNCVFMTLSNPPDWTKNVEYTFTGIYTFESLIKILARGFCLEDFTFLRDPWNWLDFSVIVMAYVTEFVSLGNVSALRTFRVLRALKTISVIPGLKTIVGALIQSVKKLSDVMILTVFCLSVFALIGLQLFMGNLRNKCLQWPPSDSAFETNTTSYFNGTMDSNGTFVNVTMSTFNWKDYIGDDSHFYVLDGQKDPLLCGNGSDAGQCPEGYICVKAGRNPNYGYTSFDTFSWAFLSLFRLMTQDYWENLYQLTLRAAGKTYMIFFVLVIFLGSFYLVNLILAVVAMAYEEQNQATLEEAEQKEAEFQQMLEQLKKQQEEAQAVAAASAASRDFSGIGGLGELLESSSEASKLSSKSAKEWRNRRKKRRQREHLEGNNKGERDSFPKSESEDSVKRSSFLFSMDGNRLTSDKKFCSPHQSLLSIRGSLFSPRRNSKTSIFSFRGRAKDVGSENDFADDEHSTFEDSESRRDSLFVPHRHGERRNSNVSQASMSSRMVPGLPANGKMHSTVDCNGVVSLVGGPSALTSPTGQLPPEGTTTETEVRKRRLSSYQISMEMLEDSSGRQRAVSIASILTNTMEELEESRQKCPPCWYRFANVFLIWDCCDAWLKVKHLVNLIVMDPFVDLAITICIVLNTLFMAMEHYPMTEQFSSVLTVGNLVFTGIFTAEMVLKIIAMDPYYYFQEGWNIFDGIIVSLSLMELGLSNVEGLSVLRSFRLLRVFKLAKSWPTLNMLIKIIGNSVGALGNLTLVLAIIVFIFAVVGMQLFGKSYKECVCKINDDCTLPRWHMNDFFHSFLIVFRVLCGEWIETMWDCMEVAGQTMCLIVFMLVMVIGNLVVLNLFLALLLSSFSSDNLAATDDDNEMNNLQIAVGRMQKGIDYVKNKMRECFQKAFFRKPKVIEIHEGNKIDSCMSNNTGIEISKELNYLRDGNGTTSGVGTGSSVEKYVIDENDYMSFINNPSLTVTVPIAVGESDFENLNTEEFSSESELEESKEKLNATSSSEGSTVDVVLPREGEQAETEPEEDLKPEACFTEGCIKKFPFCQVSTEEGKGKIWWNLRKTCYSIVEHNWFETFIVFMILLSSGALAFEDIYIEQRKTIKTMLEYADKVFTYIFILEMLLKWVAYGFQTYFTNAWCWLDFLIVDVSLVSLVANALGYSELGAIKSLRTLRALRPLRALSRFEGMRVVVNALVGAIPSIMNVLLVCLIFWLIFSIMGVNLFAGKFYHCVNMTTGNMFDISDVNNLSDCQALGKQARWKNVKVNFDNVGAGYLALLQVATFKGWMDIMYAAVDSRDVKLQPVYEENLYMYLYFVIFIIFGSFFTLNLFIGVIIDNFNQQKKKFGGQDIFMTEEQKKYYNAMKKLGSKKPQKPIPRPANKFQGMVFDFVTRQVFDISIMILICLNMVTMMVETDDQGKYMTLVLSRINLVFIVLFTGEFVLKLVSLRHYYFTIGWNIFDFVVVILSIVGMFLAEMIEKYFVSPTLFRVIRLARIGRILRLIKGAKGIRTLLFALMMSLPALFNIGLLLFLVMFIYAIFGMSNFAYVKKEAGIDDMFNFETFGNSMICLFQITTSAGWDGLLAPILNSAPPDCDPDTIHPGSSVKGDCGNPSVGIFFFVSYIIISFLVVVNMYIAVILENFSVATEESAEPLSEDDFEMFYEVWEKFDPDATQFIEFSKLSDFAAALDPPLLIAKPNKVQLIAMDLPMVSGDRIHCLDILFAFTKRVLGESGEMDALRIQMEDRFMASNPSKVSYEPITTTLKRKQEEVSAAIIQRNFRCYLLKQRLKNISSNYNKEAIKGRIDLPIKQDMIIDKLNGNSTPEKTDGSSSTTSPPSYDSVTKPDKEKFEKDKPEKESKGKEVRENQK
T1 sequence (Q15858 whole entry, looked up): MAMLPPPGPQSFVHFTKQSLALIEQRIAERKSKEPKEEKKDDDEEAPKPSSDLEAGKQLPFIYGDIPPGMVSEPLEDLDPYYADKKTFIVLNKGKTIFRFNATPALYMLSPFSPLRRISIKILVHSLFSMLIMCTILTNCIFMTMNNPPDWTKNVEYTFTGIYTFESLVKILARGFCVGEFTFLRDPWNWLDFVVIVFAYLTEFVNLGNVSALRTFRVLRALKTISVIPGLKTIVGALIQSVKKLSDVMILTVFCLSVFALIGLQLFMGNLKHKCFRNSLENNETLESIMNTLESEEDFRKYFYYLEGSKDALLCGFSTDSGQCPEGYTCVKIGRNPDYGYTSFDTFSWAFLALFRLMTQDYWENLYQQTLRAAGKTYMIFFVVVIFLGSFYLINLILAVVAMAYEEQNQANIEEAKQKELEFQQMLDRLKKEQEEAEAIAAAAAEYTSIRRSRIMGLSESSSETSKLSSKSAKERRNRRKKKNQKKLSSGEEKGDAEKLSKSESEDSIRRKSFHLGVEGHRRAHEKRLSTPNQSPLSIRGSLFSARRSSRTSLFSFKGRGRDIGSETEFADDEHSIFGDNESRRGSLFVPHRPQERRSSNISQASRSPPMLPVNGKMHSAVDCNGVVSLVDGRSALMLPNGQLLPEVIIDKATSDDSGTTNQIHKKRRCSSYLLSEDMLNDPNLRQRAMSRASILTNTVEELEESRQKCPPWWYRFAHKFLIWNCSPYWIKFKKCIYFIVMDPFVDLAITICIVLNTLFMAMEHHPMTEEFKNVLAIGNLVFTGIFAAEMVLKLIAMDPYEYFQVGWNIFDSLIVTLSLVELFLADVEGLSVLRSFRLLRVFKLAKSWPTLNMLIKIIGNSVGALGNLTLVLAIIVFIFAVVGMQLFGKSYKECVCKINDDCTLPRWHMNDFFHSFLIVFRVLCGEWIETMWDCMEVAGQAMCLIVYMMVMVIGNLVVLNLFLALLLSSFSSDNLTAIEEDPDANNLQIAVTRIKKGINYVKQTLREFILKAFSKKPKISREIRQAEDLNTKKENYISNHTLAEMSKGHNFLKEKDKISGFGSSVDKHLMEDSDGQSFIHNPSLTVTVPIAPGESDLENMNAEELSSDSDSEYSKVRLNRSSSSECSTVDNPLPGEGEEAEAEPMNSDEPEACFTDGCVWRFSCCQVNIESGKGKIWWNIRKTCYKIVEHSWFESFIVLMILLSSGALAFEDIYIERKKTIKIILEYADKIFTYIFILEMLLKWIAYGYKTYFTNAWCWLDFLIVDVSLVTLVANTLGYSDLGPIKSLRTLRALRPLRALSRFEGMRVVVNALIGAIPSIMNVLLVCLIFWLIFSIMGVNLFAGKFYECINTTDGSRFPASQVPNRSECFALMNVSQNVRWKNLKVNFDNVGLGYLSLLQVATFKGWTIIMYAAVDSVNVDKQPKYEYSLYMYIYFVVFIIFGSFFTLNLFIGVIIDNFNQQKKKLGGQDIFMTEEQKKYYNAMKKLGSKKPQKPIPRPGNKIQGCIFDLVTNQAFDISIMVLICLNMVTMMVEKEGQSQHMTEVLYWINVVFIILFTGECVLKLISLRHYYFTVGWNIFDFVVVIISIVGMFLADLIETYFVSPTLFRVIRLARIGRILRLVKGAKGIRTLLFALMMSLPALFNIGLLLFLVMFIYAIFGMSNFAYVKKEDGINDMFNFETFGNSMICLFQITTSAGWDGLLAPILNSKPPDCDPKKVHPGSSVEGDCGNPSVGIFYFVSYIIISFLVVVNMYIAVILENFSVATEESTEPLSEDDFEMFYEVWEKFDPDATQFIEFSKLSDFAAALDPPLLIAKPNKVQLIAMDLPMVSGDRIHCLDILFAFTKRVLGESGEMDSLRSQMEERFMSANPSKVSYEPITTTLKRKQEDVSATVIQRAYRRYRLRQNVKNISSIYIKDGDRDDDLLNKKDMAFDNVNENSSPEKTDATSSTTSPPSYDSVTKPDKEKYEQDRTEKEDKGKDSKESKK

On to `CC[C@H](C)[C@@H]1NC(=O)[C@@H]2CSSC[C@@H]3NC(=O)[C@H](C(C)C)NC(=O)[C@H](CC(C)C)NC(=O)[C@H](CC(N)=O)NC(=O)[C@@H]4CCCN4C(=O)[C@H](CCCNC(=N)N)NC(=O)[C@H](CSSC[C@H](NC(=O)[C@@H](N)CC(=O)O)C(=O)N[C@@H](CCC(=O)O)C(=O)NCC(=O)N[C@@H](Cc4ccccc4)C(=O)N[C@@H](CCSC)C(=O)N[C@@H](CCCNC(=N)N)C(=O)N[C@@H](CCCCN)C(=O)N2)NC(=O)[C@H](CSSC[C@@H](C(=O)N[C@@H](CCCCN)C(=O)N[C@@H](Cc2ccc(O)cc2)C(=O)N[C@H](C(=O)N[C@@H](Cc2ccccc2)C(N)=O)C(C)C)NC(=O)[C@H](Cc2c[nH]c4ccccc24)NC(=O)[C@H](CCCCN)NC(=O)[C@H](Cc2cnc[nH]2)NC(=O)[C@H]([C@@H](C)O)NC(=O)[C@H](CCCNC(=N)N)NC(=O)[C@H](CO)NC3=O)NC(=O)[C@H](CCCCN)NC(=O)[C@H](CC(=O)O)NC(=O)[C@H](CC(N)=O)NC(=O)[C@H](CC(=O)O)NC(=O)[C@@H]2CCCN2C1=O` [SEQ ID NO: 19] (H-DCEGFMRKCIPDNDKCCRPNLVCSRTHKWCKYVF-NH2; disulfide 2-17, 9-23, 16-30), for which the IC50 at hNav1.3 was 830 nM; against hNav1.7 [1], 41 nM; against hNav1.5 [2], > 10000 nM; at hNav1.5 [3] (setting [5]), 10500 nM.

For the molecule `CC[C@H](C)[C@@H]1NC(=O)[C@@H]2CSSC[C@@H]3NC(=O)[C@H](C(C)C)NC(=O)[C@H](CC(C)C)NC(=O)[C@H](CC(N)=O)NC(=O)[C@@H]4CCCN4C(=O)[C@H](CCCNC(=N)N)NC(=O)[C@H](CSSC[C@H](NC(=O)[C@@H](N)CC(=O)O)C(=O)N[C@@H](C)C(=O)NCC(=O)N[C@@H](Cc4ccccc4)C(=O)N[C@@H](CCSC)C(=O)N[C@@H](CCCNC(=N)N)C(=O)N[C@@H](CCCCN)C(=O)N2)NC(=O)[C@H](CSSC[C@@H](C(=O)N[C@@H](CCCCN)C(=O)N[C@@H](Cc2ccc(O)cc2)C(=O)N[C@H](C(=O)N[C@@H](Cc2ccccc2)C(N)=O)C(C)C)NC(=O)[C@H](Cc2c[nH]c4ccccc24)NC(=O)[C@H](CCCCN)NC(=O)[C@H](Cc2cnc[nH]2)NC(=O)[C@H]([C@@H](C)O)NC(=O)[C@H](CCCNC(=N)N)NC(=O)[C@H](CO)NC3=O)NC(=O)[C@H](CCCCN)NC(=O)[C@H](CC(=O)O)NC(=O)[C@H](CC(N)=O)NC(=O)[C@H](CC(=O)O)NC(=O)[C@@H]2CCCN2C1=O` [SEQ ID NO: 21] (H-DCAGFMRKCIPDNDKCCRPNLVCSRTHKWCKYVF-NH2; disulfide 2-17, 9-23, 16-30), the IC50 at hNav1.3 is 100 nM; against hNav1.7 [1], 12 nM; at hNav1.7 [4] (setting [6]) it was 510 nM; on hNav1.5 [2], > 10000 nM; against hNav1.5 [3] (IWQ Use Nav1.5) it was 19000 nM.

Take `CC[C@H](C)[C@@H]1NC(=O)[C@@H]2CSSC[C@@H]3NC(=O)[C@H](C(C)C)NC(=O)[C@H](CC(C)C)NC(=O)[C@H](CC(N)=O)NC(=O)[C@@H]4CCCN4C(=O)[C@H](CCCNC(=N)N)NC(=O)[C@H](CSSC[C@H](NC(=O)[C@H](CC(=O)O)NC(=O)[C@H](C)N)C(=O)N[C@@H](CC(C)C)C(=O)NCC(=O)N[C@@H](Cc4ccccc4)C(=O)N[C@@H](CCSC)C(=O)N[C@@H](CCCNC(=N)N)C(=O)N[C@@H](CCCCN)C(=O)N2)NC(=O)[C@H](CSSC[C@@H](C(=O)N[C@@H](CCCCN)C(=O)N[C@@H](Cc2ccc(O)cc2)C(=O)N[C@H](C(=O)N[C@@H](Cc2ccccc2)C(N)=O)C(C)C)NC(=O)[C@H](Cc2c[nH]c4ccccc24)NC(=O)[C@H](CCCCN)NC(=O)[C@H](Cc2c[nH]cn2)NC(=O)[C@H]([C@@H](C)O)NC(=O)[C@H](CCCNC(=N)N)NC(=O)[C@H](CO)NC3=O)NC(=O)[C@H](CCCCN)NC(=O)[C@H](CC(=O)O)NC(=O)[C@H](CC(N)=O)NC(=O)[C@H](CC(=O)O)NC(=O)[C@@H]2CCCN2C1=O` [SEQ ID NO: 100]: the IC50 amounted to 320 nM at hNav1.3; 12 nM at hNav1.7 [1]; 370 nM at hNav1.7 [4] (read-out: IWQ Use Nav1.7); 10000 nM against hNav1.5 [2]; 19600 nM at hNav1.5 [3] (setting [5]).

As to `CC[C@H](C)[C@@H]1NC(=O)[C@@H]2CSSC[C@@H]3NC(=O)[C@H](C(C)C)NC(=O)[C@H](CC(C)C)NC(=O)[C@H](CC(N)=O)NC(=O)[C@@H]4CCCN4C(=O)[C@H](CCCNC(=N)N)NC(=O)[C@H](CSSC[C@H](NC(=O)[C@@H](N)CC(=O)O)C(=O)N[C@@H](CC(C)C)C(=O)NCC(=O)N[C@@H](Cc4ccccc4)C(=O)N[C@@H](Cc4c[nH]c5ccccc45)C(=O)N[C@@H](CCCNC(=N)N)C(=O)N[C@@H](CCCCN)C(=O)N2)NC(=O)[C@H](CSSC[C@@H](C(=O)N[C@@H](CCCCN)C(=O)N[C@@H](Cc2ccc(O)cc2)C(=O)N[C@H](C(=O)N[C@@H](Cc2ccccc2)C(N)=O)C(C)C)NC(=O)[C@H](Cc2c[nH]c4ccccc24)NC(=O)[C@H](CCCCN)NC(=O)[C@H](Cc2cnc[nH]2)NC(=O)[C@H]([C@@H](C)O)NC(=O)[C@H](CCCNC(=N)N)NC(=O)[C@H](CO)NC3=O)NC(=O)[C@H](CCCCN)NC(=O)[C@H](CC(=O)O)NC(=O)[C@H](CC(N)=O)NC(=O)[C@H](CC(=O)O)NC(=O)[C@@H]2CCCN2C1=O` [SEQ ID NO: 170] (H-DCLGFWRKCIPDNDKCCRPNLVCSRTHKWCKYVF-NH2; disulfide 2-17, 9-23, 16-30), the IC50 at hNav1.3 stood at 2 nM; against hNav1.7 [1], 22 nM; against hNav1.7 [4] it was 13 nM; against hNav1.5 [2] it was 3670 nM; on hNav1.5 [3] (setting [5]) it was 3580 nM.

On to `CC[C@H](C)[C@@H]1NC(=O)[C@@H]2CSSC[C@@H]3NC(=O)[C@H](C(C)C)NC(=O)[C@H](CC(C)C)NC(=O)[C@H](CC(N)=O)NC(=O)[C@@H]4CCCN4C(=O)[C@H](CCCNC(=N)N)NC(=O)[C@H](CSSC[C@H](NC(=O)[C@@H](N)CC(=O)O)C(=O)N[C@@H](CC(C)C)C(=O)NCC(=O)N[C@@H](Cc4ccccc4)C(=O)N4CCC[C@H]4C(=O)N[C@@H](CCCNC(=N)N)C(=O)N[C@@H](CCCCN)C(=O)N2)NC(=O)[C@H](CSSC[C@@H](C(=O)N[C@@H](CCCCN)C(=O)N[C@@H](Cc2ccc(O)cc2)C(=O)N[C@H](C(=O)N[C@@H](Cc2ccccc2)C(N)=O)C(C)C)NC(=O)[C@H](Cc2c[nH]c4ccccc24)NC(=O)[C@H](CCCCN)NC(=O)[C@H](Cc2c[nH]cn2)NC(=O)[C@H]([C@@H](C)O)NC(=O)[C@H](CCCNC(=N)N)NC(=O)[C@H](CO)NC3=O)NC(=O)[C@H](CCCCN)NC(=O)[C@H](CC(=O)O)NC(=O)[C@H](CC(N)=O)NC(=O)[C@H](CC(=O)O)NC(=O)[C@@H]2CCCN2C1=O` [SEQ ID NO: 283] (H-DCLGFPRKCIPDNDKCCRPNLVCSRTHKWCKYVF-NH2; disulfide 2-17, 9-23, 16-30), for which the IC50 came out at 760 nM at hNav1.3; 42 nM on hNav1.7 [1]; 790 nM on hNav1.7 [4] (setting [6]); 10000 nM against hNav1.5 [2]; 10000 nM at hNav1.5 [3] (setting [5]).

As for `CC[C@H](C)[C@@H]1NC(=O)[C@@H]2CSSC[C@@H]3NC(=O)[C@H](C(C)C)NC(=O)[C@H](CC(C)C)NC(=O)[C@H](CC(N)=O)NC(=O)[C@@H]4CCCN4C(=O)[C@H](CCCNC(=N)N)NC(=O)[C@H](CSSC[C@H](NC(=O)[C@@H](N)CC(=O)O)C(=O)N[C@@H](CC(C)C)C(=O)NCC(=O)N[C@@H](Cc4ccccc4)C(=O)N[C@@H](Cc4ccc(O)cc4)C(=O)N[C@@H](CCCNC(=N)N)C(=O)N[C@@H](CCCCN)C(=O)N2)NC(=O)[C@H](CSSC[C@@H](C(=O)N[C@@H](CCCCN)C(=O)N[C@@H](Cc2ccc(O)cc2)C(=O)N[C@H](C(=O)N[C@@H](Cc2ccccc2)C(N)=O)C(C)C)NC(=O)[C@H](Cc2c[nH]c4ccccc24)NC(=O)[C@H](CCCCN)NC(=O)[C@H](Cc2cnc[nH]2)NC(=O)[C@H]([C@@H](C)O)NC(=O)[C@H](CCCNC(=N)N)NC(=O)[C@H](CO)NC3=O)NC(=O)[C@H](CCCCN)NC(=O)[C@H](CC(=O)O)NC(=O)[C@H](CC(N)=O)NC(=O)[C@H](CC(=O)O)NC(=O)[C@@H]2CCCN2C1=O` [SEQ ID NO: 286] (H-DCLGFYRKCIPDNDKCCRPNLVCSRTHKWCKYVF-NH2; disulfide 2-17, 9-23, 16-30), the IC50 on hNav1.3 was 520 nM; at hNav1.7 [1], 69 nM; at hNav1.7 [4], 970 nM; at hNav1.5 [2], 10000 nM; against hNav1.5 [3] (IWQ Use Nav1.5), 6380 nM.

As for `CC[C@H](C)[C@@H]1NC(=O)[C@@H]2CSSC[C@@H]3NC(=O)[C@H](C(C)C)NC(=O)[C@H](CC(C)C)NC(=O)[C@H](CC(N)=O)NC(=O)[C@@H]4CCCN4C(=O)[C@H](CCCNC(=N)N)NC(=O)[C@H](CSSC[C@H](NC(=O)[C@@H](N)CC(=O)O)C(=O)N[C@@H](CC(C)C)C(=O)NCC(=O)N[C@@H](Cc4ccccc4)C(=O)N[C@@H](Cc4ccccn4)C(=O)N[C@@H](CCCNC(=N)N)C(=O)N[C@@H](CCCCN)C(=O)N2)NC(=O)[C@H](CSSC[C@@H](C(=O)N[C@@H](CCCCN)C(=O)N[C@@H](Cc2ccc(O)cc2)C(=O)N[C@H](C(=O)N[C@@H](Cc2ccccc2)C(N)=O)C(C)C)NC(=O)[C@H](Cc2c[nH]c4ccccc24)NC(=O)[C@H](CCCCN)NC(=O)[C@H](Cc2c[nH]cn2)NC(=O)[C@H]([C@@H](C)O)NC(=O)[C@H](CCCNC(=N)N)NC(=O)[C@H](CO)NC3=O)NC(=O)[C@H](CCCCN)NC(=O)[C@H](CC(=O)O)NC(=O)[C@H](CC(N)=O)NC(=O)[C@H](CC(=O)O)NC(=O)[C@@H]2CCCN2C1=O` [SEQ ID NO: 294], the IC50 worked out at 90 nM at hNav1.3; 42 nM against hNav1.7 [1]; 370 nM at hNav1.7 [4] (setting [6]); 10000 nM at hNav1.5 [2]; 9110 nM on hNav1.5 [3] (setting [5]).
